Measurements: patent publication US12544547B2, “Gelatin-based microneedle patch for minimally-invasive extraction of bodily fluids” (THE REGENTS OF THE UNIVERSITY OF CALIFORNIA, priority 2020, dated 2026)
Where two headings read alike, the source gives them in different places.

Assays:
[1] = In vivo vancomycin detection in ISF versus plasma after intravenous vancomycin; set-up: species or system Wistar rats; settings: Wistar, rat, 1 mg/rat; for concentration at 5 min: 5 min after intravenous injection; for concentration at 30 min / concentration at 60 min: intravenous; for concentration at 30 min: 30 min following injection; for concentration at 60 min: 60 min after injection
Description: In vivo collection of ISF and glucose and vancomycin detection: All animal experiments were approved by the Animal Care and Use Committee of University of California, Los Angeles, and procedures for animals were performed in accordance with the relevant guidelines and regulations. Wistar rats (4-week-old, approximately 70-80 g) were anesthetized with 50 mg/kg sodium pentobarbital. The dorsal hair of each rat was shaved. After the initial mass of the GelMA patch 10 was weighed, it was applied to the dorsal skin of the rat using the thumb and index finger. Gauze was used to fix the patches 10 on the skin. ten minutes later, the patch 10 was removed and the final mass was recorded. To quantify the concentration of the delivered molecules, the wet patch 10 was transferred into a centrifuge tube with 200 μL of DI water. After centrifugation at 12000 rpm for 10 min, the solution in the tube was transferred to be tested. In addition, blood samples were also collected from the tail vein for glucose detection and the plasma was isolated via centrifugation for vancomycin detection. For histopathology, the skin was harvested and fixed in 10% neutral buffered formalin (BBC Biochemical, WA, USA), processed by a standard method, and embedded in paraffin. 4 μm in thickness tissue sections were stained with hematoxylin and eosin (H&E, BBC Biochemical) to confirm that GelMA microneedles 14 effectively penetrate the skin.
In the glucose detection experiment, the rats were intravenously injected with 1 mL of 0.2 g/mL glucose in saline. The glucose concentrations in ISF were tested using Glucose Assay Kit (Sigma) and the glucose levels in blood were tested using a glucometer (Clarity Diagnostics, US). In the vancomycin detection experiment, the rats were intravenously injected with 1 mL vancomycin at a concentration of 1 mg/mL in saline. The vancomycin concentration in ISF and plasma samples was also quantified by LC-MS/MS analysis (mentioned above).

[2] = set-up: species or system Wistar rats; settings: rat, in vivo
[3] = interstitial fluid (ISF), read-out: vancomycin concentration in ISF
[4] = plasma, read-out: vancomycin concentration in plasma

Compound | concentration at 5 min [1, 3] [ng/mL] | concentration at 30 min [1, 3] [ng/mL] | concentration at 60 min [1, 3] [ng/mL] | concentration at 5 min [1, 4] [ng/mL] | concentration at 30 min [1, 4] [ng/mL] | concentration at 60 min [1, 4] [ng/mL] | skin recovery time after removing the patch [2] [min]
CN[C@H](CC(C)C)C(=O)N[C@H]1C(=O)N[C@@H](CC(N)=O)C(=O)N[C@H]2C(=O)N[C@H]3C(=O)N[C@H](C(=O)N[C@H](C(=O)O)c4cc(O)cc(O)c4-c4cc3ccc4O)[C@H](O)c3ccc(c(Cl)c3)Oc3cc2cc(c3O[C@@H]2O[C@H](CO)[C@@H](O)[C@H](O)[C@H]2O[C@H]2C[C@](C)(N)[C@H](O)[C@H](C)O2)Oc2ccc(cc2Cl)[C@H]1O [vancomycin] | 5930 ± 180 | ~6500 | ~4000 | 8270 ± 130 | ~6500 | ~4000 | –
gelatin methacryloyl (GelMA) [GelMA microneedle patch] | – | – | – | – | – | – | ≤ 20
